The values below come from ChEMBL document CHEMBL1909294, “Translating clinical findings into knowledge in drug safety evaluation--drug induced liver injury prediction system (DILIps)” (PLoS Comput Biol, 2011).

The test system of data set [1] is Hepatotoxicity.
Data set [2] concerns Hepatotoxicity. The source holds these as a separate data set.
Data set [3] concerns Hepatotoxicity. The source holds these as a separate data set.
For data set [4], the system named is Hepatotoxicity. The source holds these as a separate data set.
For data set [5], the system named is Hepatotoxicity. This is another data set of the same source.
Data set [6] has as its system Hepatotoxicity. This is another data set of the same source.
Data set [7] deals with Hepatotoxicity. The source holds these as a separate data set.
Data set [8] concerns Hepatotoxicity. This is another data set of the same source.
Data set [9] concerns Hepatotoxicity. The source holds these as a separate data set.
The subject of data set [10] is Hepatotoxicity. The source holds these as a separate data set.
For data set [11], the system named is Hepatotoxicity. The source holds these as a separate data set.
In data set [12] the test system is Hepatotoxicity. The source holds these as a separate data set.
Data set [13] has as its system Hepatotoxicity. This is another data set of the same source.
The subject of data set [14] is Hepatotoxicity. The source holds these as a separate data set.

The structures appear in SMILES notation.
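Throughout, for HepSE Combined Scores: combined hepatic side effect score as listed in the training data of the Drug Induced Liver Injury Prediction System (DILIps).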
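Throughout, for HepSE bilirubinemia: bilirubinemia hepatic side effect score drawn from the DILIps training data, a prediction system for drug-induced liver injury; call rule not given here.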
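Throughout, for HepSE cholecystitis: Cholecystitis-related hepatic side effect score drawn from the DILIps (drug-induced liver injury prediction) training data set; call rule not given here.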
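Throughout, for HepSE cholelithiasis: hepatic side effect score for cholelithiasis, drawn from the DILIps training data for predicting drug-induced liver injury; call rule not given here.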
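Throughout, for HepSE cirrhosis: cirrhosis hepatic side effect score taken from the DILIps (drug-induced liver injury prediction) training set; call rule not given here.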
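Throughout, for HepSE elevated liver function tests: hepatic side effect score for raised liver function tests, as recorded in the DILIps training set used for predicting drug-induced liver injury.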
Throughout, for HepSE hepatic failure: call rule not given here.
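Throughout, for HepSE hepatic necrosis: score of hepatic side effects for hepatic necrosis, drawn from the training data of DILIps, a prediction system for drug-induced liver injury; call rule not given here.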
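Throughout, for HepSE hepatitis: Hepatitis-related hepatic side effect score taken from the training data of DILIps, a prediction system for drug-induced liver injury; call rule not given here.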
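Throughout, for HepSE hepatomegaly: hepatic side effect score for hepatomegaly, taken from the training set of the DILIps drug-induced liver injury prediction system; call rule not given here.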
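Throughout, for HepSE jaundice: Jaundice-related hepatic side-effect score drawn from the training data of the DILIps (drug-induced liver injury prediction system); call rule not given here.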
Throughout, for HepSE liver disease: call rule not given here.
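Throughout, for HepSE liver fatty: hepatic side effect score for fatty liver, taken from the DILIps training set for predicting drug-induced liver injury; call rule not given here.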
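Throughout, for HepSE liver function tests abnormal: hepatic side effect score taken from the DILIps (drug-induced liver injury prediction system) training data, here covering abnormal liver function test findings.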

Compound `CC[C@H](C)C[C@H](C)CCCCCCCCC(=O)N[C@H]1C[C@@H](O)[C@@H](NCCN)NC(=O)[C@@H]2[C@@H](O)CCN2C(=O)[C@H]([C@H](O)CCN)NC(=O)[C@H]([C@H](O)[C@@H](O)c2ccc(O)cc2)NC(=O)[C@@H]2C[C@@H](O)CN2C(=O)[C@H]([C@@H](C)O)NC1=O` [CASPOFUNGIN] gave a HepSE_hepatitis in [1] of 0. Also, the HepSE_cirrhosis in data set [2] was 0. The HepSE_bilirubinemia in [3] worked out at 1. Also, in [4], the HepSE_jaundice worked out at 1. Moreover, in data set [5], the “HepSE_liver function tests abnormal” value came out at 0. In addition, in data set [6], the HepSE_liver fatty worked out at 0. Besides, the HepSE_cholecystitis in data set [7] was 0. Moreover, in data set [8], the “HepSE_Combined Scores” value worked out at 5. For the same compound, the HepSE_hepatic necrosis in [9] was determined as 1. The same compound returned a HepSE_hepatomegaly in [10] of 1. Also, in data set [11], the HepSE_cholelithiasis came to 0. This compound registered a HepSE_liver disease in [12] of 0. Moreover, the “HepSE_elevated liver function tests” value in data set [13] came out at 0. The compound also gave a HepSE_hepatic failure in data set [14] of 1.
In the case of `NC[C@@H]1O[C@H](O[C@H]2[C@@H](O)[C@H](O[C@@H]3[C@@H](O)[C@H](N)C[C@H](N)[C@H]3O[C@H]3O[C@H](CO)[C@@H](O)[C@H](O)[C@H]3N)O[C@@H]2CO)[C@H](N)[C@@H](O)[C@@H]1O` [PAROMOMYCIN], the HepSE_hepatitis in [1] worked out at 0. In data set [2], this compound returned a HepSE_cirrhosis of 0. Further, in [3], the HepSE_bilirubinemia is 0. In data set [4], this compound yielded a HepSE_jaundice of 0. The “HepSE_liver function tests abnormal” value in data set [5] worked out at 0. For the same compound, the HepSE_liver fatty in [6] stood at 0. The HepSE_cholecystitis in data set [7] is reported as 0. The “HepSE_Combined Scores” value in data set [8] is listed as 0. The compound further registered a HepSE_hepatic necrosis in data set [9] of 0. The HepSE_hepatomegaly in data set [10] came to 0. In data set [11], this compound yielded a HepSE_cholelithiasis of 0. In addition, in [12], the HepSE_liver disease turned out to be 0. In [13], the “HepSE_elevated liver function tests” value amounted to 0. The compound further returned a HepSE_hepatic failure in data set [14] of 0.
In turn, `Oc1ccc(OCc2ccccc2)cc1` [MONOBENZONE] registered a HepSE_hepatitis in [1] of 0. In addition, the HepSE_cirrhosis in data set [2] was 0. This compound also showed a HepSE_bilirubinemia in data set [3] of 0. The same compound displayed a HepSE_jaundice in [4] of 0. Also, in data set [5], the “HepSE_liver function tests abnormal” value turned out to be 0. This compound also showed a HepSE_liver fatty in [6] of 0. The compound further displayed a HepSE_cholecystitis in data set [7] of 0. In data set [8], the “HepSE_Combined Scores” value turned out to be 0. The HepSE_hepatic necrosis in [9] is on record as 0. In addition, the HepSE_hepatomegaly in data set [10] worked out at 0. The same compound returned a HepSE_cholelithiasis in data set [11] of 0. Besides, the HepSE_liver disease in data set [12] turned out to be 0. In addition, the “HepSE_elevated liver function tests” value in data set [13] came to 0. In data set [14], this compound yielded a HepSE_hepatic failure of 0.
As to `C[C@]12CC[C@H]3[C@@H](CCC4=CC(=O)CC[C@@]43C)[C@@H]1CC[C@@H]2O` [TESTOSTERONE], the HepSE_hepatitis in [1] is recorded as 0. Further, in data set [2], the HepSE_cirrhosis is given as 0. Moreover, the HepSE_bilirubinemia in [3] is 0. For the same compound, in data set [4], the HepSE_jaundice is 1. The “HepSE_liver function tests abnormal” value in data set [5] is 1. Further, the HepSE_liver fatty in data set [6] is 0. Also, in data set [7], the HepSE_cholecystitis was found to be 0. Also, the “HepSE_Combined Scores” value in [8] was 2. The compound also showed a HepSE_hepatic necrosis in data set [9] of 0. In data set [10], this compound came in with a HepSE_hepatomegaly of 0. The compound also showed a HepSE_cholelithiasis in [11] of 0. This compound also gave a HepSE_liver disease in data set [12] of 0. Moreover, the “HepSE_elevated liver function tests” value in data set [13] is listed as 0. The compound further registered a HepSE_hepatic failure in [14] of 0.
In the case of `CC[C@@H]([C@H](C)O)n1ncn(-c2ccc(N3CCN(c4ccc(OC[C@@H]5CO[C@@](Cn6cncn6)(c6ccc(F)cc6F)C5)cc4)CC3)cc2)c1=O` [POSACONAZOLE], the HepSE_hepatitis in [1] is recorded as 1. Further, the HepSE_cirrhosis in [2] is reported as 0. This compound also gave a HepSE_bilirubinemia in data set [3] of 1. Besides, the HepSE_jaundice in [4] is recorded as 1. Moreover, in data set [5], the “HepSE_liver function tests abnormal” value is 1. This compound also gave a HepSE_liver fatty in data set [6] of 0. Further, the HepSE_cholecystitis in data set [7] was found to be 0. In data set [8], the “HepSE_Combined Scores” value is reported as 6. This compound gave a HepSE_hepatic necrosis in data set [9] of 0. This compound displayed a HepSE_hepatomegaly in [10] of 1. In data set [11], the HepSE_cholelithiasis is reported as 0. In [12], the HepSE_liver disease is 0. In addition, the “HepSE_elevated liver function tests” value in data set [13] worked out at 0. Further, in data set [14], the HepSE_hepatic failure amounted to 1.
